Experimental data from patent US9561220B2, “Group of alkaloids, the novel autophagic enhancers for treatment of cancers and neurodegenerative conditions thereof” (Macau University of Science and Technology, priority 2014, dated 2017).
Where two headings read alike, the source gives them in different places.

Assays:
[1] = test system: Atg7 wild-type mouse embryonic fibroblasts; assay: GFP-LC3 puncta in Atg7 wild-type MEFs; format: cell-based; settings: 20 μM liensinine or 10 μM others, 24 h (FIGS. 4a to 4c)
Protocol: GFP-LC3 puncta formation was quantified as previously described. In brief, both Atg7 wild-type (Atg7-wt or Atg7+/+) and deficient (Atg7-/-) mouse embryonic fibroblasts (MEFs) were transfected with GFP-LC3 plasmid and then grown on coverslips in a 6-well plate. The cells were then treated with 20 μM of […], 10 μM of isoliensinine, 10 μM of dauricine, 10 μM of cepharanthine, hernandezine or 10 μM of thalidezine. for 24 h. The cells were then fixed in 4% paraformaldehyde for 20 minutes at room temperature and then rinsed with PBS. Slides were mounted with FluorSaveTM mounting media (Calbiochem, San Diego, Calif.) and examined by fluorescence microscopy. The number of GFP-positive cells with GFP-LC3 puncta formation was examined under the Nikon ECLIPSE 80i microscope. Representative images were captured with CCD digital camera Spot RT3TM (Diagnostic Instruments, Inc., Melville, N.Y.). To quantify for autophagy, the percentage of cells with punctate GFP-LC3 fluorescence was calculated by counting the number of the cells with punctate GFP-LC3 fluorescence in GFP-positive cells. A minimum of 150 cells from 3 randomly selected fields were scored.

[2] = test system: panel of human cancer cells (HeLa, MCF-7, HepG2, Hep3B, H1299, A549, PC3); assay: cells; format: cell-based
Protocol: The test compounds of liensinine, isoliensinine, dauricine, cepharanthine, hernandezine and thalidezine were dissolved in DMSO at a final concentration of 100 mmol/L and stored at −20° C. Cytotoxicity was assessed using the 3-(4,5-dimethylthiazol-2-yl)-2,5-diphenyltetrazolium bromide assay as described previously. 4000-8000 HeLa (human cervical cancer), MCF-7 (human breast cancer), HepG2 (human liver cancer), Hep3B (human liver cancer), H1299 (human lung cancer), A549 (human lung cancer), PC3 (human prostate cancer) and LO2 (human normal liver) cells were seeded on 96-well plates per well. After overnight pre-incubation, the cells were exposed to different concentrations of liensinine, isoliensinine, dauricine, cepharanthine, hernandezine and thalidezine (0.039-100 μmol/L) for 3 days. Specifically, the following concentrations are used for all of the above alkaloids: […], 0.039 μmol/L. Subsequently, 10 μL of MTT reagents was added to each well and incubated at 37° C. for 4 hours followed by the addition of 100 μL solubilization buffer (10% SDS in 0.01 mol/L HCl) and overnight incubation. Absorbance at 585 nm was determined from each well on the following day. The percentage of cell viability was calculated using the following formula: Cell viability (%)=Cells number treated/Cells number DMSO control×100. Data was obtained from three independent experiments.

[3] = test system: AMPK; assay: Detection of mTOR signaling marker proteins: AMPK phosphorylation (Western blot); format: cell-based, human; settings: HeLa cells, 20 μM liensinine or 10 μM others, compared to DMSO control (FIG. 5a)
Protocol: HeLa cells treated with 20 μM of […], 10 μM of isoliensinine, 10 μM of dauricine, 10 μM of cepharanthine, 10 μM of hernandezine and 10 μM of thalidezine were harvested and lysed in RIPA buffer (Cell Signaling). The cell lysates were then resolved by SDS-PAGE. After electrophoresis, the proteins from SDS-PAGE were transferred to nitrocellulose membrane which was then blocked with 5% non-fat dried milk for 60 minutes. The membrane was then incubated with P-p70S6K, p70S6K, P-AMPK, AMPK and actin primary antibodies (1:1000) in TBST overnight at 4° C. respectively. After that, the membrane was further incubated with HRP-conjugated secondary antibodies for 60 minutes. Finally, protein bands were visualized by using the ECL Western Blotting Detection Reagents (Invitrogen).

[4] = test system: HeLa cells expressing GFP-LC3; assay: GFP-LC3 puncta quantification in the presence of AMPK inhibitor compound C; format: cell-based, human; settings: compound C 5 μM, 24 hours (FIG. 5b)
Protocol: GFP-LC3 puncta formation was quantified as previously described. In brief, HeLa cells expressing GFP-LC3 were treated with indicated concentrations of […], isoliensinine, dauricine, cepharanthine, hernandezine and thalidezine in the presence of AMPK inhibitor, compound C (CC, 5 μM), for 24 hours. The cells were then fixed in 4% paraformaldehyde for 20 minutes at room temperature and then rinsed with PBS. Slides were mounted with FluorSaveTM mounting media (Calbiochem) and examined by fluorescence microscopy. To quantify for autophagy, the percentage of cells with punctate GFP-LC3 fluorescence was calculated by counting the number of the cells with punctate GFP-LC3 fluorescence in GFP-positive cells. A minimum of 150 cells from 3 randomly selected fields were scored.

[5] = Homo sapiens, 72 h, read-out: mean IC50 value (cell cytotoxicity)

Row | IC50 [2] | Molecule | GFP-LC3 puncta formation in wild type Atg7 cells [1] | phosphorylation of AMPK [3] | compound-induced GFP-LC3 puncta formation in the presence of AMPK inhibitor (Compound C) [4] | IC50 [2, 5]
1 | 4.52 to 61.8 µM | thalidezine | induce | activate | significant reduction | –
2 | 4.52 to 61.8 µM | COc1cc2c(cc1OC)[C@@H](Cc1ccc(O)c(Oc3cc4c(cc3OC)CCN(C)[C@@H]4Cc3ccc(O)cc3)c1)N(C)CC2 [liensinine] | induce | activate | significant reduction | –
3 | – | COc1ccc2cc1Oc1ccc(cc1)C[C@H]1c3cc(c(OC)cc3CCN1C)Oc1c(OC)c(OC)c(OC)c3c1[C@H](C2)N(C)CC3 [hernandezine] | induce | activate | significant reduction | 4.52 to 61.8 µM
4 | – | COc1ccc(C[C@@H]2c3cc(Oc4cc(C[C@@H]5c6cc(O)c(OC)cc6CCN5C)ccc4O)c(OC)cc3CCN2C)cc1 [isoliensinine] | induce | activate | significant reduction | 4.52 to 61.8 µM
5 | – | COc1cc2c(cc1OC)[C@@H](Cc1ccc(Oc3cc(C[C@@H]4c5cc(OC)c(OC)cc5CCN4C)ccc3O)cc1)N(C)CC2 [dauricine] | induce | activate | significant reduction | 4.52 to 61.8 µM
